From patent US9714225B2, “Processes for the preparation of lorcaserin” (CADILA HEALTHCARE LIMITED, priority 2013, dated 2017)
Where a name gives a salt, the structure may show the parent alone.

Columns and labels:
[1] = Stability of crystalline Form I of lorcaserin hydrochloride stored packed for at least 3 months; type: physicochemical; settings: 25° C./60% RH and 40° C./75% RH
Experimental: The crystalline Form I of lorcaserin hydrochloride having less than 0.5% water as manufactured by the process of the present invention was subjected to stability for at least 3 months at 25° C./60% RH or at about 40° C./75% RH.
In a further aspect, the stable crystalline Form I of lorcaserin hydrochloride can be stored under nitrogen atmosphere and packed in a double polythene bag which is either heat sealed or twisted and tied with a thread (primary packing). The primary packing containing the crystalline Form I of lorcaserin hydrochloride can be kept inside a black color polyethylene bag containing a desiccant (molecular sieves) which is either heat sealed or twisted and tied, and the above double polyethylene bags may further be placed inside a triple laminated bag, optionally containing a desiccant which is either heat sealed or twisted and tied. Finally, the triple laminated bag can be kept inside a closed high density polyethylene (HDPE) container and stored in a controlled environment chamber at 25° C. and/or 40° C.

[2] = cited from earlier work
[3] = 2 Months, LDPE bag closed with a heat seal (Table 1)
[4] = 2 Months, LDPE bag closed with a twist and tie (Table 2)
[5] = 3 Months, LDPE bag closed with a heat seal (Table 1)
[6] = 3 Months, LDPE bag closed with a twist and tie (Table 2)

C[C@H]1CNCCc2ccc(Cl)cc21.Cl [(R)-8-chloro-1-methyl-2,3,4,5-tetrahydro-1H-3-benzazepine hydrochloride]
Water (%) ([1]; 1 Month, LDPE bag closed with a heat seal (Table 1), specification Less than 0.5% w/w): 0.31% | X-Ray Diffraction ([1]; 1 Month, LDPE bag closed with a heat seal (Table 1), specification: should confirm the Form-I): Form I | Water (%) ([1]; 1 Month, LDPE bag closed with a twist and tie (Table 2), specification Less than 0.5% w/w): 0.31% | X-Ray Diffraction ([1]; 1 Month, LDPE bag closed with a twist and tie (Table 2), specification: should confirm the Form-I): Form I | Description ([1]; 1 Month, LDPE bag purged with nitrogen closed with a heat seal (Table 1), specification White to off-white): off- | Description ([1]; 1 Month, LDPE bag purged with nitrogen closed with a twist and tie (Table 2), specification White to off-white): off- | Description [1, 3]: off- | Water (%) [1, 3]: 0.35% | X-Ray Diffraction [1, 3]: Form I | Description [1, 4]: off- | Water (%) [1, 4]: 0.35% | X-Ray Diffraction [1, 4]: Form I | Description [1, 5]: off-white | Water (%) [1, 5]: 0.35% | X-Ray Diffraction [1, 5]: Form I | Description [1, 6]: off-white | Water (%) [1, 6]: 0.35% | X-Ray Diffraction [1, 6]: Form I | moisture adsorbed (calculated) ([2]; DVS, between about 40 and about 80% RH): about 3.8% | relative humidity (RH) above which moisture is readily adsorbed ([2]; DVS): 40-60% | crystalline form by XRPD after the DVS cycle [2]: conversion to the hemihydrate (Form III)

C[C@H]1CNCCc2ccc(Cl)cc21 [Form III, (R)-8-chloro-1-methyl-2,3,4,5-tetrahydro-1H-3-benzazepine hydrochloride hemihydrate]
water adsorbed ([2]; DVS, at 90% RH): less than 0.5% | crystalline form by XRPD after the DVS cycle [2]: no change in crystalline form
